Patent publication US11389438B2 (CHDI Foundation, Inc., priority 2019, dated 2022)
Counter-ions that a name gives are not always drawn. Like-named read-outs stand apart in the source and are kept apart here.

Experiments:
[1] = biological target: pre-formed polyQ46 or Exon1-polyQ46 aggregates (mHTT) (Homo sapiens, UniProt P42858, INS38QQQQQQQQQQQQQQQQQQQQQQQQQ); experiment: Q46_RBA radioligand binding assay (displacement of [3H]-radioligand)
Method: Binding of W to mHTT. A radioligand binding assay was developed to screen for compounds which can efficiently displace a radioligand detailed elsewhere (see, e.g., U.S. Patent Publication No. from US 2017/0292150) pre-formed polyQ46 or Exon1-polyQ46 aggregates (Q46_RBA).
Aggregation of polyQ peptides is initiated by cleavage of the tag from a GST-polyQ46 or from a MBP-Exon1-polyQ46 fusion protein. The pre-formed aggregates are then incubated with compounds which compete with the [^3H]-radiolabelled ligand for binding to the aggregates. The readout is a scintillation based MicroBeta measurement of radioligand bound to aggregates. The activity was indicated as: +++, <100 nM; ++, 100-500 nM, +, >500 nM.

[2] = biological target: VHL complex (VHL, Elongin B, Elongin C, Cul2, Rbx1) (Homo sapiens (Human), UniProt P40337); experiment: VHL SPR assay; format: binding
Chain of VHL complex (VHL, Elongin B, Elongin C, Cul2, Rbx1) (P40337 whole entry, looked up): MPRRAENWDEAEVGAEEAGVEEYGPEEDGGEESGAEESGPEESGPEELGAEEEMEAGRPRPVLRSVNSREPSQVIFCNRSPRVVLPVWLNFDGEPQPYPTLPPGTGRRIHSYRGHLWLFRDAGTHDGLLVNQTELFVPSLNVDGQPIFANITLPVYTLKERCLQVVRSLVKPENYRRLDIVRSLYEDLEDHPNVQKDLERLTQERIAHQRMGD
Chain of VHL complex (VHL, Elongin B, Elongin C, Cul2, Rbx1) (Q15370 whole entry partner, looked up): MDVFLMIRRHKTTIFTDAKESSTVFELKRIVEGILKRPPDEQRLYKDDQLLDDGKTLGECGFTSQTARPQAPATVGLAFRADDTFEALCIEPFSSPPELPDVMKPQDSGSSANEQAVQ
Chain of VHL complex (VHL, Elongin B, Elongin C, Cul2, Rbx1) (Q15369 whole entry partner, looked up): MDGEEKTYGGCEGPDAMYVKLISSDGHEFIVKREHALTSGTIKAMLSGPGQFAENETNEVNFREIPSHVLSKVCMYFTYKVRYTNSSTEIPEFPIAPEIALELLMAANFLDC
Chain of VHL complex (VHL, Elongin B, Elongin C, Cul2, Rbx1) (Q13617 whole entry partner, looked up): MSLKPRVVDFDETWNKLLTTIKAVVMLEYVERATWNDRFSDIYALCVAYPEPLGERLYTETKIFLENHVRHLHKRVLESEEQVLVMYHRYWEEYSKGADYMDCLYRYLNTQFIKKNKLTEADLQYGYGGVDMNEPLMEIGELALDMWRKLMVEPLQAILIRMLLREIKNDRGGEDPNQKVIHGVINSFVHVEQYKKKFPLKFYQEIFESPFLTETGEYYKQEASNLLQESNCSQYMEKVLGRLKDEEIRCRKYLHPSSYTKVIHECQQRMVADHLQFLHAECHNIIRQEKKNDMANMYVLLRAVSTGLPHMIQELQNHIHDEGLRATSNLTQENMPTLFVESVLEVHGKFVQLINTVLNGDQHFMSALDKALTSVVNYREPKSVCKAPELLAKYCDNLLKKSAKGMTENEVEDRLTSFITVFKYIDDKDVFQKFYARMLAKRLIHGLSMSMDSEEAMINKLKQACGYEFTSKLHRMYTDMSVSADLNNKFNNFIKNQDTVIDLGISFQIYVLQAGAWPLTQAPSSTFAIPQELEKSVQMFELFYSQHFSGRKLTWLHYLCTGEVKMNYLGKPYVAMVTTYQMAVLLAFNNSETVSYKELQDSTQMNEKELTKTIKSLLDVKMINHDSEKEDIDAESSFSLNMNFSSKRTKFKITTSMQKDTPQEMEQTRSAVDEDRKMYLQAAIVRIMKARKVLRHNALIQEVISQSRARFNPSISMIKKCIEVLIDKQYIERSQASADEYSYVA
Chain of VHL complex (VHL, Elongin B, Elongin C, Cul2, Rbx1) (P62877 whole entry partner, looked up): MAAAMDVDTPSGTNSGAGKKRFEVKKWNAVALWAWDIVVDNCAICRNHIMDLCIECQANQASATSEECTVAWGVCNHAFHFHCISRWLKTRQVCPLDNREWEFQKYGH
Source text: Surface Plasmon Resonance (SPR) assays have been developed to test the affinity (KD) of VHL or CRBN-based compounds to respective recombinant ligase complex/domain.
The assays are based on surface plasmon resonance (SPR), which enables to measure the changes of the local refractive index due to changes of molecular mass on a gold chip surface in the case of a binding event and in a flowing system. To detect binding between both partners, the respective E3 ligase is immobilized to the chip surface, while the test compounds are flown over the chip surface at a steady velocity. The detected changes in the RU response are indicative of the binding event and are concentration dependent.
These tags provide the anchor for the capturing process to either an NTA or Streptavidin coated chip surface (immobilization level of 3,000-5,000 RU). Because of the rather complex structure of the VHL complex, it was additionally coupled to the chip surface by amino coupling to prevent any protein loss by disruption of the complex in the flowing system.
To detect binding of compounds and extract dissociation constants KD for the tested compounds to the immobilized E3 ligase, concentration response curves of the compounds were recorded. Compounds were usually tested in 10-pt dilutions up to 20 μM final concentration in assay buffer and were flown over the chip at 30 μL/min. The contact time for each cycle includes 90 s for association and 200 s for dissociation of compounds.
In the following tables, the Kd values are indicated as: +++, <100 nM; ++, 100-500 nM, +, >500 nM.

[3] = immobilized VHL complex, read-out: VHL SPR Kd

Structure (SMILES)	IC50 [1]	Kd [2, 3]	Kd [2]
CNc1c(-c2cn3c(n2)sc2cc(OCCOCCOCC(=O)N[C@H](C(=O)N4C[C@H](O)C[C@H]4C(=O)NCc4ccc(-c5scnc5C)cc4)C(C)(C)C)ccc23)nc2cc(C#N)ccn12 [Compound 2]	< 100 nM	100 to 500 nM	–
Cc1ncsc1-c1ccc(CNC(=O)[C@@H]2C[C@@H](O)CN2C(=O)[C@@H](NC(=O)CCOCCOCCOCCOCCOCCOc2ccc(C(=O)Nc3ccc4oc(-c5ccc(=O)n(C)n5)nc4c3)nc2)C(C)(C)C)cc1 [Compound 24]	< 100 nM	< 100 nM	–
Cc1ncsc1-c1ccc(CNC(=O)[C@@H]2C[C@@H](O)CN2C(=O)[C@H](C(C)C)N2Cc3ccccc3C2=O)c(OCCOCCOCCOc2ccc(COc3ccc4oc(-c5ccc(=O)n(C)n5)nc4c3)nc2)c1 [Compound 45]	100 to 500 nM	> 500 nM	–
Cc1ncsc1-c1ccc(CNC(=O)[C@@H]2C[C@@H](O)CN2C(=O)[C@@H](NC(=O)COCCOCCOCCOc2ccc(COc3ccc4oc(N5CCn6ccnc6C5)nc4c3)nc2)C(C)(C)C)cc1 [Compound 58, (2S,4R)-1-((S)-2-(tert-butyl)-14-((6-(((2-(5,6-dihydroimidazo[1,2-a]pyrazin-7(8H)-yl)benzo[d]oxazol-5-yl)oxy)methyl)pyridin-3-yl)oxy)-4-oxo-6,9,12-trioxa-3-azatetra-decan-1-oyl)-4-hydroxy-N-(4-(4-methylthiazol-5-yl)benzyl)-pyrrolidine-2-carboxamide]	100 to 500 nM	> 500 nM	–
Cc1ncsc1-c1ccc(CNC(=O)[C@@H]2C[C@@H](O)CN2C(=O)[C@H](C(C)C)N2Cc3ccccc3C2=O)c(OCCOCCOCCOCCOc2ccc(COc3ccc4oc(-c5ccc(=O)n(C)n5)nc4c3)nc2)c1 [Compound 46]	101 nM	> 500 nM	–
Cc1ncsc1-c1ccc(CNC(=O)[C@@H]2C[C@@H](O)CN2C(=O)[C@@H](NC(=O)CCOCCOCCOCCOCCOCCOCCOCCOCCOc2ccc(C(=O)Nc3ccc4oc(-c5ccc(=O)n(C)n5)nc4c3)nc2)C(C)(C)C)cc1 [Compound 25]	100 to 500 nM	–	100 to 500 nM
Cc1ncsc1-c1ccc(CNC(=O)[C@@H]2C[C@@H](O)CN2C(=O)[C@@H](NC(=O)CCOCCOc2ccc(C(=O)Nc3ccc4oc(-c5ccc(=O)n(C)n5)nc4c3)nc2)C(C)(C)C)cc1 [Compound 21]	< 100 nM	100 to 500 nM	–
Cc1ncsc1-c1ccc(CNC(=O)[C@@H]2C[C@@H](O)CN2C(=O)[C@@H](NC(=O)COCCOCCOCCOCCOc2ccc(COc3ccc4oc(N5CCn6ccnc6C5)nc4c3)nc2)C(C)(C)C)cc1 [Compound 57]	< 100 nM	100 to 500 nM	–
Cc1ncsc1-c1ccc(CNC(=O)[C@H]2C[C@H](O)CN2C(=O)[C@@H](C(C)C)N2Cc3ccccc3C2=O)c(OCCOCCOCCOCCOc2ccc(C(=O)Nc3ccc4oc(-c5ccc(=O)n(C)n5)nc4c3)nc2)c1 [Compound 11]	< 100 nM	> 500 nM	–
Cc1ncsc1-c1ccc(CNC(=O)[C@@H]2C[C@@H](O)CN2C(=O)[C@H](C(C)C)N2Cc3ccccc3C2=O)c(OCCOCCOCCOCCOc2ccc(C(=O)Nc3ccc4oc(-c5ccc(=O)n(C)n5)nc4c3)nc2)c1 [Compound 20, 5-{2-[2-(2-{2-[2-({[(2S,4R)-4-Hydroxy-1-[(2S)-3-methyl-2-(1-oxo-2,3-dihydro-1H-isoindol-2-yl)butanoyl]pyrrolidin-2-yl]formamido}methyl)-5-(4-methyl-1,3-thiazol-5-yl)phenoxy]ethoxy}ethoxy)ethoxy]ethoxy}-N-[2-(1-methyl-6-oxo-1,6-dihydropyridazin-3-yl)-1,3-benzoxazol-5-yl]pyridine-2-carboxamide]	< 100 nM	100 to 500 nM	–
Cc1ncsc1-c1ccc(CNC(=O)[C@H]2C[C@H](O)CN2C(=O)[C@H](NC(=O)COCCOCCOc2ccc(COc3ccc4oc(-c5ccc(=O)n(C)n5)nc4c3)nc2)C(C)(C)C)cc1 [Compound 48]	< 100 nM	> 500 nM	–
CNc1c(-c2cn3c(n2)sc2cc(OCCOCCOCCOCC(=O)N[C@H](C(=O)N4C[C@H](O)C[C@H]4C(=O)NCc4ccc(-c5scnc5C)cc4)C(C)(C)C)ccc23)nc2cc(C#N)ccn12 [Compound 3]	< 100 nM	100 to 500 nM	–
Cc1ncsc1-c1ccc(CNC(=O)[C@@H]2C[C@@H](O)CN2C(=O)[C@@H](NC(=O)CCOCCOCCOc2ccc(C(=O)Nc3ccc4oc(-c5ccc(=O)n(C)n5)nc4c3)nc2)C(C)(C)C)cc1 [Compound 22, 5-{2-[2-(2-{[(2S)-1-[(2S,4R)-4-Hydroxy-2-({[4-(4-methyl-1,3-thiazol-5-yl)phenyl]methyl}carbamoyl)pyrrolidin-1-yl]-3,3-dimethyl-1-oxobutan-2-yl]carbamoyl}ethoxy)ethoxy]ethoxy}-N-[2-(1-methyl-6-oxo-1,6-dihydropyridazin-3-yl)-1,3-benzoxazol-5-yl]pyridine-2-carboxamide]	< 100 nM	< 100 nM	–
CC(C)C[C@H](NC(=O)[C@@H](O)[C@H](N)Cc1ccccc1)C(=O)NCCOCCOCCOCCOCCOc1ccc(C(=O)Nc2ccc3oc(-c4ccc(=O)n(C)n4)nc3c2)nc1 [Compound 15]	< 100 nM	–	–
CC(C)C[C@H](NC(=O)[C@@H](O)[C@H](N)Cc1ccccc1)C(=O)NCCOCCOCCOc1ccc(C(=O)Nc2ccc3oc(-c4cccnc4)nc3c2)nc1 [Compound 61]	< 100 nM	–	–
Cc1ncsc1-c1ccc(CNC(=O)[C@@H]2C[C@@H](O)CN2C(=O)[C@@H](NC(=O)CCOCCOCCOCCOc2ccc(C(=O)Nc3ccc4oc(-c5ccc(=O)n(C)n5)nc4c3)nc2)C(C)(C)C)cc1 [Compound 23]	< 100 nM	< 100 nM	–
Cc1ncsc1-c1ccc(CNC(=O)[C@@H]2C[C@@H](O)CN2C(=O)[C@@H](NC(=O)COCCOc2ccc(C(=O)Nc3ccc4oc(-c5ccc(=O)n(C)n5)nc4c3)nc2)C(C)(C)C)cc1 [Compound 29]	< 100 nM	–	–
Cc1ncsc1-c1ccc(CNC(=O)[C@@H]2C[C@@H](O)CN2C(=O)[C@@H](NC(=O)COCCOCCOCCOc2ccc(COc3ccc4oc(N5CCNCC5)nc4c3)nc2)C(C)(C)C)cc1 [Compound 53, (2S,4R)-1-((S)-2-(tert-butyl)-4-oxo-14-((6-(((2-(piperazin-1-yl)benzo-[d]oxazol-5-yl)oxy)methyl)pyridin-3-yl)oxy)-6,9,12-trioxa-3-azatetradecanoyl)-4-hydroxy-N-(4-(4-methylthiazol-5-yl)benzyl)pyrrolidine-2-carboxamide]	> 500 nM	100 to 500 nM	–
Cc1ncsc1-c1ccc(CNC(=O)[C@@H]2C[C@@H](O)CN2C(=O)[C@H](C(C)C)N2Cc3ccccc3C2=O)c(OCCOc2ccc(COc3ccc4oc(-c5ccc(=O)n(C)n5)nc4c3)nc2)c1 [Compound 43, (2S,4R)-4-hydroxy-1-((S)-3-methyl-2-(1-oxoisoindolin-2-yl)butan-oyl)-N-(2-(2-((6-(((2-(1-methyl-6-oxo-1,6-dihydropyridazin-3-yl)benzo[d]oxazol-5-yl)oxy)methyl)pyridin-3-yl)oxy)ethoxy)-4-(4-methylthiazol-5-yl)benzyl)pyrrolidine-2-carboxamide]	< 100 nM	> 500 nM	–
Cc1ncsc1-c1ccc(CNC(=O)[C@@H]2C[C@@H](O)CN2C(=O)[C@H](C(C)C)N2Cc3ccccc3C2=O)c(OCCOCCOc2ccc(COc3ccc4oc(-c5ccc(=O)n(C)n5)nc4c3)nc2)c1 [Compound 44]	100 to 500 nM	> 500 nM	–
CC(C)C[C@H](NC(=O)[C@@H](O)[C@H](N)Cc1ccccc1)C(=O)NCCOCCOCCOc1ccc(COc2ccc3oc(-c4ccc(=O)n(C)n4)nc3c2)nc1 [Compound 49, (2S)-2-[(2S,3R)-3-Azaniumyl-2-hydroxy-4-phenylbutanamido]-4-methyl-N-{2-[2-(2-{[6-({[2-(1-methyl-6-oxo-1,6-dihydropyridazin-3-yl)-1,3-benzoxazol-5-yl]oxy}methyl)pyridin-3-yl]oxy}ethoxy)ethoxy]ethyl}pentanamide formate]	< 100 nM	–	–
CC(C)C[C@H](NC(=O)[C@@H](O)[C@H](N)Cc1ccccc1)C(=O)NCCOCCOCCOCCOc1ccc(C(=O)Nc2ccc3oc(-c4cccnc4)nc3c2)nc1 [Compound 62, 5-{2-[2-(2-{2-[(2S)-2-[(2S,3R)-3-Azaniumyl-2-hydroxy-4-phenylbutanamido]-4-methylpentanamido]ethoxy}ethoxy)ethoxy]ethoxy}-N-[2-(pyridin-3-yl)-1,3-benzoxazol-5-yl]pyridine-2-carboxamide diformate]	< 100 nM	–	–
Cc1ncsc1-c1ccc(CNC(=O)[C@H]2C[C@H](O)CN2C(=O)[C@H](NC(=O)CCOCCOCCOCCOCCOCCOCCOCCOCCOCCOCCOCCOCCOCCOCCOCCOCCOc2ccc(C(=O)Nc3ccc4oc(-c5ccc(=O)n(C)n5)nc4c3)nc2)C(C)(C)C)cc1 [Compound 27]	100 to 500 nM	–	–
CC(C)C[C@H](NC(=O)[C@@H](O)[C@H](N)Cc1ccccc1)C(=O)NCCOCCOCCOCCOCCOCCOCCOCCOCCOc1ccc(C(=O)Nc2ccc3oc(-c4ccc(=O)n(C)n4)nc3c2)nc1 [Compound 17]	< 100 nM	–	–
